The source of these data is article doi:10.1101/2022.04.02.486822v1 (biorxiv, 2022).

For the experiment, the target named is T1, EcGhrA (Escherichia coli, UniProt P75913).
T1 sequence (P75913 1-312): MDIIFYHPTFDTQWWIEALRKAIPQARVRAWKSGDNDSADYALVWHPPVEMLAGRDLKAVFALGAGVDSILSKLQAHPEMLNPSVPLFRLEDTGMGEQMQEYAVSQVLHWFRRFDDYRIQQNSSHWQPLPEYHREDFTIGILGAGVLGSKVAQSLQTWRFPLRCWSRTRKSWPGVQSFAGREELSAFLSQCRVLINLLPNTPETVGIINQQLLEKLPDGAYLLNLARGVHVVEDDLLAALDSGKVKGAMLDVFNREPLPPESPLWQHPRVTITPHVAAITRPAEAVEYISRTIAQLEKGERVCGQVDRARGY
The experiment can be described thus: NADPH oxidation at […] nm, substrate inhibition fit. It counts as biochemical. The conditions noted are these: 200 µM NADPH, 50 mM HEPES, pH 7.5, 22 °C.

`O=CC(=O)O` [compound 6, glyoxylate] returned a KI of 1.5 ± 1.1 mM.
`O=C(O)CC(=O)C(=O)O` [compound 7, oxaloacetate] yielded a KI of 52 ± 15 mM.
